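Grown in 96-well plates, cells were treated for 48 hours with each compound at five concentrations. Insufficient inhibition: endpoint recorded as highest concentration tested. TGI marks complete inhibition of growth.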

Some test systems named below: COLO 205 colon; DMS 273 small cell lung; HCC-2998 colon; HL-60(TB) leukemia; K-562 leukemia; KM12 colon; KM20L2 colon; LOX IMVI melanoma; M19-MEL melanoma; NCI-H460 lung; OVCAR-4 ovarian; OVCAR-5 ovarian; SF-295 CNS; SK-MEL-5 melanoma; SNB-19 CNS; SNB-75 CNS; SW-620 colon; U251 CNS; M14 melanoma; SR leukemia.
What all share (assay): NCI tumour cell line growth inhibition, 48 h

Turning to `C[C@H](N)C(=O)N[C@@H]1[C@H]2C(=C(O)C[C@@H](O)[C@@H]2O)C(=O)O[C@@H]1C`, the TGI with COLO 205 colon, in the assay with DMS 273 small cell lung, in the assay on HCC-2998 colon, with HL-60(TB) leukemia, in the assay with K-562 leukemia and with KM12 colon was more than 100 µM in each case. Also, the TGI with KM20L2 colon, in the assay on LOX IMVI melanoma, with M19-MEL melanoma, in the assay on NCI-H460 lung, in the assay with OVCAR-4 ovarian and in the assay on OVCAR-5 ovarian was more than 100 µM throughout. In addition, the TGI in the assay on SF-295 CNS, with SK-MEL-5 melanoma, in the assay with SNB-19 CNS, in the assay with SNB-75 CNS, with SW-620 colon and in the assay with U251 CNS was more than 100 µM each time.
For `CCOC(=O)C1=NN(c2ccc(Cl)cc2)C2=CC(C)=NN(C)C(=S)N21`, the TGI in the assay on COLO 205 colon, in the assay with HCC-2998 colon, with HL-60(TB) leukemia, in the assay with K-562 leukemia, in the assay on KM12 colon and in the assay on LOX IMVI melanoma was more than 100 µM throughout. Also, the TGI in the assay with M14 melanoma, in the assay with NCI-H460 lung, with OVCAR-4 ovarian, in the assay on OVCAR-5 ovarian, in the assay with SF-295 CNS and in the assay with SK-MEL-5 melanoma was more than 100 µM throughout. Moreover, the TGI in the assay on SNB-19 CNS is more than 100 µM; in the assay on SNB-75 CNS, 94.7 µM; with SR leukemia, more than 100 µM; in the assay on SW-620 colon, more than 100 µM; in the assay with U251 CNS, 59.2 µM.
As to `COc1ccc(/C=N/n2cnc3c(c2=O)S/C(=C2/SC(=S)N(c4ccc(C)cc4)C2=O)N3c2ccccc2)cc1`, the TGI with COLO 205 colon was more than 100 µM; with DMS 273 small cell lung, more than 100 µM; in the assay with HCC-2998 colon, more than 100 µM; in the assay with HL-60(TB) leukemia, more than 100 µM; in the assay with K-562 leukemia, more than 10 µM; with KM12 colon, more than 100 µM. For the same compound, the TGI was more than 100 µM with KM20L2 colon; more than 100 µM with LOX IMVI melanoma; more than 100 µM in the assay on M14 melanoma; more than 100 µM with M19-MEL melanoma; more than 100 µM in the assay on NCI-H460 lung; 94.1 µM in the assay on OVCAR-4 ovarian. In addition, the TGI was more than 100 µM in the assay on OVCAR-5 ovarian; 38.1 µM with SF-295 CNS; 83.5 µM in the assay with SNB-19 CNS; more than 100 µM with SNB-75 CNS; more than 100 µM in the assay with SR leukemia; more than 100 µM with SW-620 colon.
`COc1ccc(/C(Cl)=C(\C=O)c2ccccc2)cc1OC`: the TGI is 22.4 µM in the assay on COLO 205 colon; more than 100 µM with DMS 273 small cell lung; more than 100 µM in the assay with HCC-2998 colon; 76.9 µM with HL-60(TB) leukemia; more than 100 µM in the assay on K-562 leukemia; more than 100 µM with KM20L2 colon. In addition, the TGI with LOX IMVI melanoma, in the assay with M14 melanoma, in the assay with M19-MEL melanoma, in the assay on NCI-H460 lung, in the assay with OVCAR-4 ovarian and with OVCAR-5 ovarian was more than 100 µM each time. Further, the TGI with SF-295 CNS was 55.1 µM; in the assay with SK-MEL-5 melanoma, more than 100 µM; in the assay with SNB-19 CNS, more than 100 µM; with SNB-75 CNS, 52.2 µM; with SR leukemia it was more than 100 µM; in the assay on SW-620 colon, more than 100 µM. The compound also gave a TGI with U251 CNS of more than 100 µM.

The values above are taken from PubChem BioAssay (NCI).
